Source: PubChem BioAssay (NCI)
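Step 1: Grow cells in 96-well plates. Step 2: Expose to compound for 48 hours at 5 concentrations. Step 3: Interpolate endpoints linearly; if unreached, use highest concentration. GI50 = concentration required for 50% inhibition of growth. TGI: total growth inhibition.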

Assays:
Assay in all cases: DTP human tumour cell line panel, 48 h
OVCAR-5 ovarian = system: OVCAR-5 ovarian
CCRF-CEM leukemia = system: CCRF-CEM leukemia
UACC-62 melanoma = system: UACC-62 melanoma
HT29 colon = system: HT29 colon
M14 melanoma = system: M14 melanoma
SW-620 colon = system: SW-620 colon
KM12 colon = system: KM12 colon
ACHN renal = system: ACHN renal
SNB-19 CNS = system: SNB-19 CNS
SK-MEL-28 melanoma = system: SK-MEL-28 melanoma
SNB-75 CNS = system: SNB-75 CNS
RXF 393 renal = system: RXF 393 renal
UACC-257 melanoma = system: UACC-257 melanoma
BT-549 breast = system: BT-549 breast
HOP-92 NSCLC = system: HOP-92 NSCLC
SF-295 CNS = system: SF-295 CNS
786-0 renal = system: 786-0 renal
MDA-MB-231 breast = system: MDA-MB-231 breast
SK-MEL-2 melanoma = system: SK-MEL-2 melanoma
NCI-H460 lung = system: NCI-H460 lung
SF-268 CNS = system: SF-268 CNS
HCC-2998 colon = system: HCC-2998 colon
DU-145 prostate = system: DU-145 prostate
MCF7 breast = system: MCF7 breast
NCI/ADR-RES ovarian = system: NCI/ADR-RES ovarian
HCT-15 colon = system: HCT-15 colon
MDA-MB-435 = system: MDA-MB-435
MALME-3M melanoma = system: MALME-3M melanoma

## N#Cc1ccc(N2Cc3cc(Cl)ccc3OC3=C2C(=O)N(Cc2ccccc2)C3=O)cc1
OVCAR-5 ovarian
  GI50: 1960 nM
  TGI: 4080 nM
CCRF-CEM leukemia
  GI50: 226 nM
  TGI: 827 nM
UACC-62 melanoma
  GI50: 1260 nM
  TGI: 2860 nM
HT29 colon
  GI50: 1580 nM
  TGI: 3960 nM
M14 melanoma
  GI50: 1490 nM
  TGI: 3680 nM
SW-620 colon
  GI50: 278 nM
  TGI: 971 nM
KM12 colon
  GI50: 2700 nM
  TGI: 8010 nM
ACHN renal
  GI50: 870 nM
  TGI: 2200 nM
SNB-19 CNS
  GI50: 3320 nM
  TGI: 11700 nM
SK-MEL-28 melanoma
  GI50: 1620 nM
  TGI: 3410 nM
SNB-75 CNS
  GI50: 1240 nM
  TGI: 2530 nM
RXF 393 renal
  GI50: 1540 nM
  TGI: 3050 nM
UACC-257 melanoma
  GI50: 1350 nM
  TGI: 2850 nM
BT-549 breast
  GI50: 1600 nM
  TGI: 3300 nM
HOP-92 NSCLC
  GI50: 1450 nM
  TGI: 3090 nM
SF-295 CNS
  GI50: 5220 nM
  TGI: 20400 nM
786-0 renal
  GI50: 1920 nM
  TGI: 3440 nM
MDA-MB-231 breast
  GI50: 1740 nM
  TGI: 3990 nM
SK-MEL-2 melanoma
  GI50: 2080 nM
  TGI: 4510 nM
NCI-H460 lung
  GI50: 2090 nM
  TGI: 4520 nM
SF-268 CNS
  GI50: 1750 nM
  TGI: 3890 nM
HCC-2998 colon
  GI50: 1890 nM
  TGI: 3650 nM
DU-145 prostate
  GI50: 1480 nM
  TGI: 2820 nM
MCF7 breast
  GI50: 769 nM
  TGI: 4720 nM
NCI/ADR-RES ovarian
  GI50: 2690 nM
  TGI: 11400 nM
HCT-15 colon
  GI50: 628 nM
  TGI: 2950 nM
MDA-MB-435
  GI50: 1340 nM
  TGI: 3270 nM
MALME-3M melanoma
  GI50: 1440 nM
  TGI: 3080 nM
